Measurements from US20230114728A1 (Venatorx Pharmaceuticals, Inc., priority 2019, published 2023).
≈ marks a conversion by molar mass, not a printed value.

What was measured:
Experiment in all cases: Broth microdilution MIC in iron-depleted CAMHB (IDM)
Assay type in all cases: cell-based
[1] = system: P. aeruginosa CDC-0095 producing OXA-50, and PAO; details: Pseudomonas aeruginosa, read-out: Minimum Inhibitory Concentration, P. aeruginosa CDC-0095
Summary of the method: (§1)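 CLSI broth microdilution in iron-depleted CAMHB (Chelex 100-treated, Ca, Mg and 10 μM Zn re-added, pH 7.3). Inoculum was 2-8×10^5 CFU/mL from 3-5 h IDM cultures. Plates were incubated at 37° C for 20-24 h (Acinetobacter) or 16-20 h (Pseudomonas), and MIC was read visually as the lowest concentration without growth.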

[2] = system: A. baumannii ATCC 17978; details: Acinetobacter baumannii, ATCC17978, read-out: Minimum Inhibitory Concentration, ATCC 17978
Summary of the method: as §1

[3] = system: A. baumannii CDC-0083 producing NDM-1, PER-7, OXA-23, and OXA-69; details: Acinetobacter baumannii, read-out: Minimum Inhibitory Concentration, CDC-0083
Summary of the method: as §1

[4] = system: P. aeruginosa ATCC 27853; details: Pseudomonas aeruginosa, ATCC27853, read-out: Minimum Inhibitory Concentration, P. aeruginosa ATCC 27853
Summary of the method: as §1

[5] = system: P. aeruginosa ATCC 35151; details: Pseudomonas aeruginosa, ATCC35151; iron-depleted MHB (IDM); hyper-permeable strain; read-out: Minimum Inhibitory Concentration, P. aeruginosa ATCC 35151
Summary of the method: as §1

[6] = system: A. baumannii CDC-0036 OXA-65, and OXA-24; details: Acinetobacter baumannii, read-out: Minimum Inhibitory Concentration, CDC-0036
Summary of the method: as §1

[7] = system: A. baumannii CDC-0033 producing NDM-1, and OXA-94; details: Acinetobacter baumannii, read-out: Minimum Inhibitory Concentration, CDC-0033
Summary of the method: as §1

[8] = system: P. aeruginosa CDC-0054 producing VIM-4, OXA-50, and PAO; details: Pseudomonas aeruginosa, read-out: Minimum Inhibitory Concentration, P. aeruginosa CDC-0054
Summary of the method: as §1

[9] = system: P. aeruginosa CDC-0090 producing KPC-5, OXA-50, and PAO; details: Pseudomonas aeruginosa, read-out: Minimum Inhibitory Concentration, P. aeruginosa CDC-0090
Summary of the method: as §1

[10] = system: P. aeruginosa (ΔmexAB-oprM); details: Pseudomonas aeruginosa, read-out: Minimum Inhibitory Concentration, P. aeruginosa ΔmexAB-OprM
Summary of the method: as §1

Compound | MIC [1] | MIC [2] | MIC [3] | MIC [4] | MIC [5] | MIC [6] | MIC [7] | MIC [8] | MIC [9] | MIC [10]
CCN1CCN(C(=O)N[C@H](C(=O)N[C@H]2Cc3ccc(F)c(C(=O)O)c3OB2O)c2c(F)cc(O)c(O)c2Cl)C(=O)C1=O (single isomer, unassigned) [Example 125] | > 128 µg/mL | > 128 µg/mL | > 128 µg/mL | > 128 µg/mL | > 128 µg/mL | > 128 µg/mL | > 128 µg/mL | > 128 µg/mL | > 128 µg/mL | > 128 µg/mL
NC1(CN2CCN(C(=O)N[C@@H](C(=O)N[C@H]3Cc4ccc(F)c(C(=O)O)c4OB3O)c3cc(F)c(O)c(O)c3Cl)C(=O)C2=O)CC1 (single isomer, unassigned) [Example 133] | 2 to 4 µg/mL (≈ 3.07 to 6.14 µM) | 0.25 µg/mL (≈ 0.384 µM) | > 128 µg/mL | 0.5 to 1 µg/mL (≈ 0.767 to 1.53 µM) | 0.25 µg/mL (≈ 0.384 µM) | 2 to 4 µg/mL (≈ 3.07 to 6.14 µM) | 8 to 16 µg/mL (≈ 12.3 to 24.5 µM) | 0.5 to 1 µg/mL (≈ 0.767 to 1.53 µM) | 0.5 to 1 µg/mL (≈ 0.767 to 1.53 µM) | 0.25 µg/mL (≈ 0.384 µM)
NC1(CN2CCN(C(=O)N[C@@H](C(=O)N[C@H]3Cc4ccc(F)c(C(=O)O)c4OB3O)c3c(F)cc(O)c(O)c3Cl)C(=O)C2=O)CC1 (single isomer, unassigned) [Example 134] | 32 to 64 µg/mL (≈ 49.1 to 98.2 µM) | 0.5 to 1 µg/mL (≈ 0.767 to 1.53 µM) | > 128 µg/mL | 2 to 4 µg/mL (≈ 3.07 to 6.14 µM) | 0.25 µg/mL (≈ 0.384 µM) | 8 to 16 µg/mL (≈ 12.3 to 24.5 µM) | 32 to 64 µg/mL (≈ 49.1 to 98.2 µM) | 32 to 64 µg/mL (≈ 49.1 to 98.2 µM) | 2 to 4 µg/mL (≈ 3.07 to 6.14 µM) | 0.25 µg/mL (≈ 0.384 µM)
NCCN1CCN(C(=O)N[C@@H](C(=O)N[C@H]2Cc3ccc(F)c(C(=O)O)c3OB2O)c2cc(F)c(O)c(O)c2Cl)C(=O)C1=O (single isomer, unassigned) [Example 179] | 2 to 4 µg/mL (≈ 3.2 to 6.39 µM) | 0.5 to 1 µg/mL (≈ 0.799 to 1.6 µM) | > 128 µg/mL | 0.5 to 1 µg/mL (≈ 0.799 to 1.6 µM) | 0.25 µg/mL (≈ 0.4 µM) | 2 to 4 µg/mL (≈ 3.2 to 6.39 µM) | 8 to 16 µg/mL (≈ 12.8 to 25.6 µM) | 0.5 to 1 µg/mL (≈ 0.799 to 1.6 µM) | 2 to 4 µg/mL (≈ 3.2 to 6.39 µM) | 0.25 µg/mL (≈ 0.4 µM)
NCCCN1CCN(C(=O)N[C@@H](C(=O)N[C@H]2Cc3ccc(F)c(C(=O)O)c3OB2O)c2cc(F)c(O)c(O)c2Cl)C(=O)C1=O (single isomer, unassigned) [Example 180] | 2 to 4 µg/mL (≈ 3.13 to 6.25 µM) | 0.5 to 1 µg/mL (≈ 0.782 to 1.56 µM) | > 128 µg/mL | 0.5 to 1 µg/mL (≈ 0.782 to 1.56 µM) | 0.25 µg/mL (≈ 0.391 µM) | 8 to 16 µg/mL (≈ 12.5 to 25 µM) | 8 to 16 µg/mL (≈ 12.5 to 25 µM) | 0.5 to 1 µg/mL (≈ 0.782 to 1.56 µM) | 2 to 4 µg/mL (≈ 3.13 to 6.25 µM) | 0.25 µg/mL (≈ 0.391 µM)
C[C@@H](O)[C@@H](NC(=O)N1CCN(CCNC(=O)c2c(F)cc(O)c(O)c2Cl)C(=O)C1=O)C(=O)N[C@H]1Cc2ccc(F)c(C(=O)O)c2OB1O [Example 102, (R)-3-((2R,3R)-2-(4-(2-(2-chloro-6-fluoro-3,4-dihydroxybenzamido)ethyl)-2,3-dioxopiperazine-1-carboxamido)-3-hydroxybutanamido)-7-fluoro-2-hydroxy-3,4-dihydro-2H-benzo[e][1,2]oxaborinine-8-carboxylic acid] | 2 to 4 µg/mL (≈ 2.87 to 5.73 µM) | 2 to 4 µg/mL (≈ 2.87 to 5.73 µM) | 32 to 64 µg/mL (≈ 45.9 to 91.7 µM) | 2 to 4 µg/mL (≈ 2.87 to 5.73 µM) | 0.5 to 1 µg/mL (≈ 0.717 to 1.43 µM) | 32 to 64 µg/mL (≈ 45.9 to 91.7 µM) | 32 to 64 µg/mL (≈ 45.9 to 91.7 µM) | 32 to 64 µg/mL (≈ 45.9 to 91.7 µM) | 2 to 4 µg/mL (≈ 2.87 to 5.73 µM) | 0.5 to 1 µg/mL (≈ 0.717 to 1.43 µM)
NS(=O)(=O)Nc1cccc(C(NC(=O)N2CCN(Cc3c(F)cc(O)c(O)c3Cl)C(=O)C2=O)C(=O)N[C@H]2Cc3cccc(C(=O)O)c3OB2O)c1 (stereo partly drawn) [Example 131, (3R)-3-(2-(4-(2-chloro-6-fluoro-3,4-dihydroxybenzyl)-2,3-dioxopiperazine-1-carboxamido)-2-(3-(sulfamoylamino)phenyl)acetamido)-2-hydroxy-3,4-dihydro-2H-benzo[e][1,2]oxaborinine-8-carboxylic acid] | 8 to 16 µg/mL (≈ 10.7 to 21.4 µM) | 0.5 to 1 µg/mL (≈ 0.668 to 1.34 µM) | > 128 µg/mL | 8 to 16 µg/mL (≈ 10.7 to 21.4 µM) | 0.25 µg/mL (≈ 0.334 µM) | > 128 µg/mL | > 128 µg/mL | > 128 µg/mL | 2 to 4 µg/mL (≈ 2.67 to 5.34 µM) | 0.25 µg/mL (≈ 0.334 µM)
NS(=O)(=O)c1cc(O)cc(C(NC(=O)N2CCN(Cc3c(F)cc(O)c(O)c3Cl)C(=O)C2=O)C(=O)N[C@H]2Cc3cccc(C(=O)O)c3OB2O)c1 (stereo partly drawn) [Example 132, (3R)-3-(2-(4-(2-chloro-6-fluoro-3,4-dihydroxybenzyl)-2,3-dioxopiperazine-1-carboxamido)-2-(3-hydroxy-5-sulfamoylphenyl)acetamido)-2-hydroxy-3,4-dihydro-2H-benzo[e][1,2]oxaborinine-8-carboxylic acid] | > 128 µg/mL | > 128 µg/mL | > 128 µg/mL | 8 to 16 µg/mL (≈ 10.7 to 21.3 µM) | 0.5 to 1 µg/mL (≈ 0.667 to 1.33 µM) | > 128 µg/mL | > 128 µg/mL | > 128 µg/mL | 2 to 4 µg/mL (≈ 2.67 to 5.33 µM) | 0.25 µg/mL (≈ 0.333 µM)
